Experimental data from publication PMC9007951, “Systematically evaluating DOTATATE and FDG as PET immuno-imaging tracers of cardiovascular inflammation” (Scientific Reports, 2022).
Like-named read-outs stand apart in the source and are kept apart here.

Experiment: Timed organ biodistribution of [^64Cu]Cu-DOTATATE by ex vivo gamma counting
Format: in vivo, mice
Conditions: mouse, intravenous, 1.85 MBq, total radioactivity, median (IQR); for tissue uptake at 1 min: 1 min after injection; for tissue uptake at 5 min: 5 min after injection; for tissue uptake at 0.25 h: 15 min after injection; for tissue uptake at 0.5 h: 30 min after injection; for tissue uptake at 2 h: 120 min after injection; for tissue uptake at 1 h: 60 min after injection
Protocol: Wild-type and atherosclerotic animals were injected with approximately 1.85 MBq of [^64Cu]Cu-DOTATATE and euthanized at either 1, 5, 15, 30, 60 or 120 min after injection (Supplementary Fig. S1A) to evaluate the tracer’s biodistribution. After euthanasia, an insulin syringe was used to collect blood samples from the right ventricle. Blood samples were used for the establishment of pharmacokinetics profile. Mice were then perfused with 20 mL of phosphate-buffered saline (PBS) and tissues of interest (heart, aorta, bone marrow, spleen, liver, stomach, bladder, kidneys, intestines, lungs, adrenal gland, muscles and pancreas) were harvested. Tissues were blotted for gamma counting on a Wizard2 2480 automatic gamma counter (Perkin Elmer, Waltham, MA). Values were corrected for decay and normalized to tissue weight to express radioactivity concentration as percentage injected dose per gram (%ID/g). […] To investigate the tracer’s distribution within different blood compartments, after gamma counting, 100 μL of blood were spun down at 2000 g for 15 min at 4 °C. Plasma (supernatant) and cells (pellet) were gamma counted and expressed as percentage of total activity. The remainder of the blood was separated using Lymphoprep density gradient medium (Nycomed Pharma, Zurich, Switzerland) following manufacturer’s instructions. Percentage of activity in mononuclear and polynuclear cells was calculated.

[1] = abdominal aorta, female Apoe^-/- mice 12 weeks on Western Diet, N=3-8, read-out: Tissue radioactivity, abdominal aorta
[2] = abdominal aorta, female C57BL/6 mice, N=3-7, read-out: Tissue radioactivity, abdominal aorta
[3] = adrenal gland, female Apoe^-/- mice 12 weeks on Western Diet, N=3-8, read-out: Tissue radioactivity, adrenal gland
[4] = adrenal gland, female C57BL/6 mice, N=3-7, read-out: Tissue radioactivity, adrenal gland
[5] = aortic arch, female Apoe^-/- mice 12 weeks on Western Diet, N=3-8, read-out: Tissue radioactivity, aortic arch
[6] = aortic arch, female C57BL/6 mice, N=3-7, read-out: Tissue radioactivity, aortic arch
[7] = bladder, female Apoe^-/- mice 12 weeks on Western Diet, N=3-8, read-out: Tissue radioactivity, bladder
[8] = bladder, female C57BL/6 mice, N=3-7, read-out: Tissue radioactivity, bladder
[9] = bone marrow, female Apoe^-/- mice 12 weeks on Western Diet, N=3-8, read-out: Tissue radioactivity, bone marrow
[10] = bone marrow, female C57BL/6 mice, N=3-7, read-out: Tissue radioactivity, bone marrow
[11] = fat, female Apoe^-/- mice 12 weeks on Western Diet, N=3-8, read-out: Tissue radioactivity, fat
[12] = fat, female C57BL/6 mice, N=3-7, read-out: Tissue radioactivity, fat
[13] = heart, female Apoe^-/- mice 12 weeks on Western Diet, N=3-8, read-out: Tissue radioactivity, heart
[14] = heart, female C57BL/6 mice, N=3-7, read-out: Tissue radioactivity, heart
[15] = kidneys, female Apoe^-/- mice 12 weeks on Western Diet, N=3-8, read-out: Tissue radioactivity, kidneys
[16] = kidneys, female C57BL/6 mice, N=3-7, read-out: Tissue radioactivity, kidneys
[17] = large intestine, female Apoe^-/- mice 12 weeks on Western Diet, N=3-8, read-out: Tissue radioactivity, large intestine
[18] = large intestine, female C57BL/6 mice, N=3-7, read-out: Tissue radioactivity, large intestine
[19] = liver, female Apoe^-/- mice 12 weeks on Western Diet, N=3-8, read-out: Tissue radioactivity, liver

C[C@@H](O)[C@H](NC(=O)[C@@H]1CSSC[C@H](NC(=O)[C@@H](Cc2ccccc2)NC(=O)CN2CCN(CC(=O)O)CCN(CC(=O)O)CCN(CC(=O)O)CC2)C(=O)N[C@@H](Cc2ccc(O)cc2)C(=O)N[C@H](Cc2c[nH]c3ccccc23)C(=O)N[C@@H](CCCCN)C(=O)N[C@@H]([C@@H](C)O)C(=O)N1)C(=O)O [[^64Cu]Cu-DOTATATE, metal not drawn] showed a tissue uptake at 1 min [1] of 3.1 %ID/g, a tissue uptake at 5 min [1] of 3.2 %ID/g and a tissue uptake at 0.25 h [1] of 2.1 %ID/g. It also gave a tissue uptake at 0.5 h [1] of 2.5 %ID/g, a tissue uptake at 2 h [1] of 2.1 %ID/g and a tissue uptake at 1 min [2] of 5.1 %ID/g. For the same compound, the tissue uptake at 5 min [2] was 3.8 %ID/g, the tissue uptake at 0.25 h [2] was 2.4 %ID/g and the tissue uptake at 0.5 h [2] was 1.7 %ID/g. The tissue uptake at 1 h [2] was 1.3 %ID/g, the tissue uptake at 2 h [2] was 0.7 %ID/g and the tissue uptake at 1 min [3] was 1.4 %ID/g. The tissue uptake at 5 min [3] was 1.2 %ID/g, the tissue uptake at 0.25 h [3] was 1.4 %ID/g and the tissue uptake at 0.5 h [3] was 1.5 %ID/g. The tissue uptake at 1 h [3] was 1.4 %ID/g, the tissue uptake at 2 h [3] was 1.1 %ID/g and the tissue uptake at 0.25 h [4] was 1.7 %ID/g. The tissue uptake at 0.5 h [4] was 1.6 %ID/g, the tissue uptake at 1 h [4] was 1.6 %ID/g and the tissue uptake at 2 h [4] was 0.6 %ID/g. It also gave a tissue uptake at 1 min [5] of 2.9 %ID/g, a tissue uptake at 0.25 h [5] of 1.7 %ID/g and a tissue uptake at 0.5 h [5] of 1.7 %ID/g. The tissue uptake at 1 min [6] was 2.8 %ID/g, the tissue uptake at 0.25 h [6] was 1.3 %ID/g and the tissue uptake at 0.5 h [6] was 1.1 %ID/g. The tissue uptake at 1 h [6] was 1.1 %ID/g, the tissue uptake at 2 h [6] was 1.2 %ID/g and the tissue uptake at 1 min [7] was 1.7 %ID/g. The tissue uptake at 5 min [7] was 98.7 %ID/g, the tissue uptake at 0.25 h [7] was 38.9 %ID/g and the tissue uptake at 0.5 h [7] was 2.9 %ID/g. The tissue uptake at 1 h [7] was 4.7 %ID/g, the tissue uptake at 2 h [7] was 2.4 %ID/g and the tissue uptake at 1 min [8] was 4.6 %ID/g. For the same compound, the tissue uptake at 5 min [8] was 36.4 %ID/g, the tissue uptake at 0.25 h [8] was 7.9 %ID/g and the tissue uptake at 0.5 h [8] was 6.8 %ID/g. For the same compound, the tissue uptake at 2 h [8] was 10.4 %ID/g, the tissue uptake at 1 min [9] was 3.1 %ID/g and the tissue uptake at 5 min [9] was 2.3 %ID/g. For the same compound, the tissue uptake at 0.25 h [9] was 2.6 %ID/g, the tissue uptake at 2 h [9] was 2.7 %ID/g and the tissue uptake at 5 min [10] was 4.3 %ID/g. For the same compound, the tissue uptake at 0.25 h [10] was 3.5 %ID/g, the tissue uptake at 1 h [10] was 2.1 %ID/g and the tissue uptake at 2 h [10] was 2.5 %ID/g. The tissue uptake at 1 min [11] was 0.3 %ID/g, the tissue uptake at 5 min [11] was 0.4 %ID/g and the tissue uptake at 0.25 h [11] was 0.4 %ID/g. It also gave a tissue uptake at 0.5 h [11] of 0.3 %ID/g, a tissue uptake at 1 h [11] of 0.2 %ID/g and a tissue uptake at 2 h [11] of 0.2 %ID/g. The tissue uptake at 1 min [12] was 1.1 %ID/g, the tissue uptake at 5 min [12] was 1.3 %ID/g and the tissue uptake at 0.25 h [12] was 0.8 %ID/g. The tissue uptake at 0.5 h [12] was 0.5 %ID/g, the tissue uptake at 1 h [12] was 0.3 %ID/g and the tissue uptake at 2 h [12] was 0.2 %ID/g. For the same compound, the tissue uptake at 1 min [13] was 2.3 %ID/g, the tissue uptake at 5 min [13] was 1.4 %ID/g and the tissue uptake at 0.25 h [13] was 1.1 %ID/g. The tissue uptake at 1 h [13] was 1.3 %ID/g, the tissue uptake at 2 h [13] was 1.4 %ID/g and the tissue uptake at 1 min [14] was 3.8 %ID/g. For the same compound, the tissue uptake at 5 min [14] was 2.1 %ID/g, the tissue uptake at 0.25 h [14] was 1.1 %ID/g and the tissue uptake at 1 h [14] was 0.8 %ID/g. The tissue uptake at 2 h [14] was 0.7 %ID/g, the tissue uptake at 1 min [15] was 15.6 %ID/g and the tissue uptake at 5 min [15] was 22.9 %ID/g. It also gave a tissue uptake at 0.25 h [15] of 13.2 %ID/g, a tissue uptake at 0.5 h [15] of 8.8 %ID/g and a tissue uptake at 1 min [16] of 26.8 %ID/g. The tissue uptake at 5 min [16] was 20.5 %ID/g, the tissue uptake at 0.25 h [16] was 11.5 %ID/g and the tissue uptake at 0.5 h [16] was 8.2 %ID/g. It also gave a tissue uptake at 1 h [16] of 6.1 %ID/g, a tissue uptake at 1 min [17] of 1.3 %ID/g and a tissue uptake at 5 min [17] of 1.3 %ID/g. For the same compound, the tissue uptake at 0.5 h [17] was 2.8 %ID/g, the tissue uptake at 2 h [17] was 3.8 %ID/g and the tissue uptake at 1 min [18] was 2.7 %ID/g. The tissue uptake at 5 min [18] was 1.6 %ID/g, the tissue uptake at 0.5 h [18] was 1.7 %ID/g and the tissue uptake at 1 h [18] was 3 %ID/g. It also gave a tissue uptake at 2 h [18] of 3.1 %ID/g, a tissue uptake at 1 min [19] of 4.4 %ID/g and a tissue uptake at 5 min [19] of 4.9 %ID/g. For the same compound, the tissue uptake at 0.25 h [19] was 8.6 %ID/g.
